Data: US20070185161A1, “Bicyclic substituted indole-derivative steroid hormone nuclear receptor modulators” (priority 2004, published 2007)

Key:
human MR = biological target: T1, human MR (Homo sapiens, UniProt P08235); assay: Mineralocorticoid Receptor Binding Assay (Method 1); settings: [3H]-aldosterone, racemic mixture unless otherwise indicated
T1 construct: The full length human MR gene is cloned from a human kidney or human brain cDNA library; made in house; host or cells: SF9 insect cells (baculovirus)
T1 sequence (P08235 1-984): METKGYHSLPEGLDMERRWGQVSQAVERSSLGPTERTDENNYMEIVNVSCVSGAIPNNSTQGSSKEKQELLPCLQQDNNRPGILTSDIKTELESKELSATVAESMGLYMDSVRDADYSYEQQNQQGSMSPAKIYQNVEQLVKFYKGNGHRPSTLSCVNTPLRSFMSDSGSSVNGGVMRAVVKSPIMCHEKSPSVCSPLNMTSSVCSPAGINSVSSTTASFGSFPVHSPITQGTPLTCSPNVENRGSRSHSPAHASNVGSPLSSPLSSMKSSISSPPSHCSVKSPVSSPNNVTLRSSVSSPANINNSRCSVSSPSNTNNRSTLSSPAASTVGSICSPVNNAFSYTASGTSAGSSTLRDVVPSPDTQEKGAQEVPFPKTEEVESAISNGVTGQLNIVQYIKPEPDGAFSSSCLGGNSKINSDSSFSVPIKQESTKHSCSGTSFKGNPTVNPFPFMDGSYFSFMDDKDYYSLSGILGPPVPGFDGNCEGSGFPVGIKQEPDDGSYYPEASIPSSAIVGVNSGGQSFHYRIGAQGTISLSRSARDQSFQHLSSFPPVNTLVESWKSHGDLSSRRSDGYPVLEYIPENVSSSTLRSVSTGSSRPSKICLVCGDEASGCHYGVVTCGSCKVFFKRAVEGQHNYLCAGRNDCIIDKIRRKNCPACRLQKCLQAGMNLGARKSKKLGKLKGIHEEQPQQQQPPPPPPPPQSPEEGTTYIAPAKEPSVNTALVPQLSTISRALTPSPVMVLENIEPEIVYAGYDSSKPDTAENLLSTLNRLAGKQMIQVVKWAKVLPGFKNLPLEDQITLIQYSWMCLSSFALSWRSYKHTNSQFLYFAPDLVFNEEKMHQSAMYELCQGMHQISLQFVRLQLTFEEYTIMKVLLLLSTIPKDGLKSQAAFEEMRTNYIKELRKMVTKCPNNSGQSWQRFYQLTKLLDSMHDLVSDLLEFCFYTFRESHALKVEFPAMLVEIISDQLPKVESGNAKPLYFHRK
Experimental: The full length human MR gene is cloned from a human kidney or human brain cDNA library. Briefly, using synthetic oligonucleotide primers (Eli Lilly and Company, Indianapolis) directed to nucleotides 20-54 and 3700-3666 of the human MR, polymerase chain reaction (PCR) is performed under standard conditions using a human cDNA library. The PCR reaction is performed in a final volume of 50 μl containing about 1 μl of a 50× stock solution of polymerase; about 1 μl of a 50× stock solution of dNTP; about 5 μl of an appropriate PCR buffer; about 1 μl of each primer; about 5 μl of a H. kidney or H. brain cDNA library; and about 36 μl of water. The reaction is allowed to denature for about 30 seconds at 95 degrees Celsius, anneal for about 30 seconds at 55 degrees Celsius, and extend for about 5 minutes at 72 degrees Celsius, the sequence being repeated for a total of about 35 cycles. The desired PCR product (3.68 Kb) is confirmed by gel electrophoresis and subsequently cut from the gel and stored at about −20 degrees Celsius until extraction. To extract the cDNA product from the agarose gel, the QIAEX II Gel Extraction protocol (QIAGEN, Inc.) is employed according to the manufacturer's instructions. Following extraction, the MR cDNA is cloned into an appropriate cloning vector (Zero Blunt TOPO PCR Cloning Kit (Invitrogen, Inc.) and a pAcHLT-baculovirus transfer vector (B.D./Pharminogen), then expressed in SF9 insect cells, essentially according to manufacturer's instructions. Sf9 cells are grown at a scale where gram quantity cell pellets are obtained for subsequent use in the MR binding assay. Harvested cell pellets are lysed by repeated freeze-thaw cycles (about 4) in a suitable lysis buffer then centrifuged at about 1×10^3 G (with the supernatant being saved for future assays).
MR binding assays are performed in a final total volume of about 250 μl containing about 20-25 μg of protein and 0.5 nM of [^3H]-aldosterone plus varying concentrations of test compound or vehicle. The assay binding buffer consists of 30 mM sodium molybdate, 30 mM of TRIS-HCl, 5 mM sodium phosphate, 5 mM sodium pyrophosphate, and about 10% glycerol, pH=7.5.
Briefly, assays are prepared at RT in 96-well Falcon 3072 plates, each well containing 210 μl of binding buffer, 10 μl of [^3H]-aldosterone, 10 μl of test compound/vehicle, and 20 μl of the resuspended receptor protein extract. Incubations are carried out at 4 degrees Celsius with shaking for about 16 hours. 200 μl aliquots of each incubation are filtered onto Millipore HA 0.45 micron 96-well filter plates, pre-moistened with cold 30 mM TRIS-HCl. The filter plates are suctioned dry with vacuum and immediately washed 3× with cold 30 mM TRIS-HCl. The plates are then punched out and the amount of receptor-ligand complex is determined by liquid scintillation counting using 4 ml of Ready Protein Plus™ liquid scintillation cocktail.
IC50 values (defined as the concentration of test compound required to decrease [^3H]-aldosterone binding by 50%) are then determined. Ki values for each respective test compound can then be calculated by application of the Cheng-Prusoff equation as described in Cheng et al., Relationship Between The Inhibition Constant (Ki) and The Concentration of Inhibitor Which Causes 50% Inhibition (IC50) of an Enzymatic Reaction, Biochem. Pharmacol., 22: 3099-31088; (1973).

[1] = biological target: T2, human GR (glucocorticoid receptor) (Homo sapiens, UniProt P04150); assay: Alternative Binding Assay Protocol (Method 2), GR; settings: 3H-dexamethasone, 293-GR lysate, racemic mixture unless otherwise indicated
T2 construct: expressed in transfected cells; host or cells: 293 cells
T2 sequence (P04150 1-777): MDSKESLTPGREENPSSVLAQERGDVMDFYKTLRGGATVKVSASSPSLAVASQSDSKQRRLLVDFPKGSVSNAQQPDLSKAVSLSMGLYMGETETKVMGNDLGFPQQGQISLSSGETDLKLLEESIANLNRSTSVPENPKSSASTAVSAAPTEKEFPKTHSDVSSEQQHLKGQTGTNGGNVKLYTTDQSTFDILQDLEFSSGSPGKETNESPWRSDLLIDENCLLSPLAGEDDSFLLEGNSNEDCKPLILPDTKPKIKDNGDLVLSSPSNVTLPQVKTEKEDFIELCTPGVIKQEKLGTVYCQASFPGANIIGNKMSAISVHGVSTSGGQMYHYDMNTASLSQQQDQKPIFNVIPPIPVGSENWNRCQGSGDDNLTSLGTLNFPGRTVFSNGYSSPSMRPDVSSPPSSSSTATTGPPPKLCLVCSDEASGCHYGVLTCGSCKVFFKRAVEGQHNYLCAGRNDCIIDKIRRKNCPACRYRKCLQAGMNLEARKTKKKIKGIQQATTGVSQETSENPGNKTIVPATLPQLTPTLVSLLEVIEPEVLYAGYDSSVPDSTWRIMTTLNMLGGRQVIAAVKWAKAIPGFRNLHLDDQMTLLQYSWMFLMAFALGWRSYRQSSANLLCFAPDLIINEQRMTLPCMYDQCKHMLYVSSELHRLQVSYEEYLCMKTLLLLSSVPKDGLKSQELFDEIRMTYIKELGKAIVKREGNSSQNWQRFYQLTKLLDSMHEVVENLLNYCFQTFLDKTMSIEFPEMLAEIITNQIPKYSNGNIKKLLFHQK
Experimental: Cell lysates from 293 cells overexpressing human GR (glucocorticoid receptor), AR (androgen receptor), MR (mineralocorticoid receptor) or PR (progesterone receptor) are used for competition binding assays to determine Ki values for test compounds. Briefly, competition binding assays are run in a buffer containing 20 mM Hepes, pH 7.6, 0.2 mM EDTA, 75 mM NaCl, 1.5 mM MgCl2, 20% glycerol, 20 mM sodium molybdate, 0.2 mM DTT, 20 ug/ml aprotinin and 20 ug/ml leupeptin, using either 0.3 nM ^3H-dexamethasone for GR binding, 0.36 nM ^3H-methyltrienolone for AR binding, 0.25 nM ^3H-aldosterone for MR binding, or 0.29 nM ^3H-methyltrienolone for PR binding, and either 20 ug 293-GR lysate, 22 ug 293-AR lysate, 20 ug 293-MR lysate or 40 ug 293-PR lysate per well. Competing compounds are added at various concentraions in half-log increments. Non-specific binding is determined in the presence of 500 nM dexamethasone for GR binding, 500 nM aldosterone for MR binding, or 500 nM methyltrienolone for AR and PR binding,. The binding reaction (140 μl) is incubated for overnight at […], then 70 μl of cold charcoal-dextran buffer (containing per 50 ml of assay buffer, 0.75 g of charcoal and 0.25 g of dextran) is added to each reaction. Plates are mixed 8 minutes on an orbital shaker at 4° C. Plates are then centrifuged at 3,000 rpm at 4° C. for 10 minutes. An aliquot of 120 μl of the mix is transferred to another 96-well plate and 175 μl of Wallac Optiphase “Hisafe 3” scintillation fluid is added to each well. Plates are sealed and shaken vigorously on an orbital shaker. After an incubation of 2 hrs, plates are read in a Wallac Microbeta counter. The data is used to calculate an IC50 and % Inhibition at 10 μM. The Kd for ^3H-dexamethasone for GR binding, ^3H-methyltrienolone for AR binding, ^3H-aldosterone for MR binding, or ^3H-methyltrienolone for PR binding, is determined by saturation binding. The IC50 values for compounds are converted to Ki using Cheng-Prusoff equation and the Kd determined by saturation binding assay.

[2] = system: patients suffering from advanced CHF; settings: in combination with standard CHF therapy; cited from earlier work

SMILES	Ki (human MR)	further results
CC1(c2c[nH]c3c(NS(C)(=O)=O)cccc23)CCCc2cc(F)cc(F)c21 (racemic) [Example 30, N-[3-(6,8-Difluoro-1-methyl-1,2,3,4-tetrahydro-naphthalen-1-yl)-1H-indol-7-yl]-methanesulfonamide]	≤ 500 nM	–
CC1(c2c[nH]c3c(NS(C)(=O)=O)cccc23)CCCc2cc(F)cc(F)c21 (single isomer, unassigned) [Example 30B, N-[3-(6,8-Difluoro-1-methyl-1,2,3,4-tetrahydro-naphthalen-1-yl)-1H-indol-7-yl]-methanesulfonamide]	≤ 500 nM	–
CN(C)CCCC1(c2c[nH]c3c(NS(C)(=O)=O)cccc23)CCc2cc(F)ccc21 (centres unmarked) [Example 43, N-{3-[1-(3-Dimethylamino-propyl)-5-fluoro-indan-1-yl]-1H-indol-7-yl}-methanesulfonamide]	–	Ki [1]: ≤ 10000 nM
CCC1(c2c[nH]c3c(OC)cccc23)CCc2cc(F)ccc21 (centres unmarked) [Example 12, 3-(1-Ethyl-5-fluoro-indan-1-yl)-7-methoxy-1H-indole]	≤ 500 nM	–
CCC1(c2c[nH]c3c(NS(C)(=O)=O)cccc23)CCCc2cc(F)cc(F)c21 (single isomer, unassigned) [Example 31B, N-[3-(1-Ethyl-6,8-difluoro-1,2,3,4-tetrahydro-naphthalen-1-yl)-1H-indol-7-yl]-methanesulfonamide]	≤ 500 nM	–
CC(=O)S[C@@H]1CC2=CC(=O)CC[C@]2(C)[C@H]2CC[C@@]3(C)[C@@H](CC[C@@]34CCC(=O)O4)[C@H]12 [spironolactone]	–	reduced cardiac related mortality [2]: 30%; reduced frequency of hospitalization [2]: 35%

Further lines, with some results ahead:

Ki (human MR)	SMILES	further results
≤ 500 nM	CCC1(c2c[nH]c3c(Br)cccc23)CCc2cc(F)ccc21 (centres unmarked) [Example 8, 7-Bromo-3-(1-ethyl-5-fluoro-indan-1-yl)-1H-indole]	–
≤ 500 nM	CCC1(c2c[nH]c3ccccc23)CCc2cc(F)ccc21 (centres unmarked) [Example 6, 3-(1-Ethyl-5-fluoro-indan-1-yl)-1H-indole]	–
≤ 1000 nM	CCc1cccc2c(C3(CC)CCc4cc(F)ccc43)c[nH]c12 (centres unmarked) [Example 10, 7-Ethyl-3-(1-ethyl-5-fluoro-indan-1-yl)-1H-indole]	–
≤ 500 nM	CC1(c2c[nH]c3c(NS(C)(=O)=O)cccc23)CCCc2cc(F)cc(F)c21 (single isomer, unassigned) [Example 30A, N-[3-(6,8-Difluoro-1-methyl-1,2,3,4-tetrahydro-naphthalen-1-yl)-1H-indol-7-yl]-methanesulfonamide]	–
≤ 500 nM	CCC1(c2c[nH]c3c(Cl)cccc23)CCc2cc(F)ccc21 (centres unmarked) [Example 9, 7-Chloro-3-(1-ethyl-5-fluoro-indan-1-yl)-1H-indole]	–
≤ 500 nM	CCC1(c2c[nH]c3c(F)cccc23)CCc2cc(F)ccc21 (centres unmarked) [Example 7, 3-(1-Ethyl-5-fluoro-indan-1-yl)-7-fluoro-1H-indole]	–
≤ 500 nM	CCC1(c2c[nH]c3c(NS(C)(=O)=O)cccc23)CCCc2cc(F)cc(F)c21 (single isomer, unassigned) [Example 31A, N-[3-(1-Ethyl-6,8-difluoro-1,2,3,4-tetrahydro-naphthalen-1-yl)-1H-indol-7-yl]-methanesulfonamide]	–
